Literature values, collected in patent US5667811A, “Na-K-ATPase inhibiting natriuretic substances” (The Regents of the University of California, priority 1992, dated 1997).
No end group written: not given here.

Columns and labels:
Na-K-ATPase = conditions: literature
active transport = conditions: literature

| Substance | Na-K-ATPase inhibition (Na-K-ATPase) | inhibition of active transport (active transport) |
| --- | --- | --- |
| lysophosphatidyl choline | potent Na-K-ATPase inhibitors | – |
| ANF: atrial natriuretic factor, synthesized or stored in cardiac atria (SLRRSSCFGGRMDRIGAQSGLGCNSFRY; ends and bridges not checked; cysteine pairing not given here; UniProt P01160 124-151, looked up) | – | does not inhibit active transport |
